Assays:
[1] = system: AGS gastric carcinoma cells [heterozygous G12D]; assay: Cancer cell line proliferation (CellTiter-Glo), AGS; format: cell-based; conditions: Homo sapiens, 72 hr treatment, read-out: AGS CTG (EC50)
Outline: (§1)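 EC50 values come from CellTiter-Glo viability measured after 72 hr compound treatment at 37° C./5% CO2 with 0.5% final DMSO. Plating was at 4,000 cells/well with 72 hr growth before dosing, and compounds were serially diluted 3-fold from 20 μM down to 1.02 nM.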

[2] = system: ASPC1 pancreatic adenocarcinoma cells [homozygous G12D]; assay: Cancer cell line proliferation (CellTiter-Glo), ASPC1; format: cell-based; conditions: Homo sapiens, ASPC1, 72 h, 72 hr treatment, read-out: ASPC-1 CTG (EC50)
Procedure: The following cancer cell lines were employed: AGS gastric carcinoma [heterozygous G12D](ATCC, CRL-1739); A-427 lung carcinoma [heterozygous G12D](ATCC, HTB-53); ASPC1 pancreatic adenocarcinoma [homozygous G12D](ATCC, CRL-1682) and SW1990 pancreatic adenocarcinoma [homozygous G12D](ATCC CRL-2172). Cell lines were cultured essentially according to ATCC recommendations.
AGS, A-427, ASPC1, SW1990, and GP2D cells were plated in 96-well tissue culture plates at 4,000 cells/well and incubated at 37° C./5% CO2 for 72 hr in 100 μl of media. 3-fold serial dilutions of each test compound were prepared ranging from 20 μM to 1.02 nM. Each cell line was then treated with test compounds at various concentrations with a final concentration of 0.5% DMSO/well, and then incubated at 37° C./5% CO2 for 72 hr. 100 µl of CellTiter-Glo® Reagent (Promega Corporation, Madison, WI) was added to each well and processed according manufacturer's protocol. Results were analyzed and EC50 values were calculated in GraphPad 7 software.

[3] = system: A-427 lung carcinoma cells [heterozygous G12D]; assay: Cancer cell line proliferation (CellTiter-Glo), A-427; format: cell-based; conditions: Homo sapiens, A-427 cells, 72 hr treatment, read-out: A427 CTG (EC50)
Outline: as §1

KRAS(G12D)/SOS1 = molecular target: T1, KRAS(G12D)/SOS1 (Homo sapiens, UniProt P01116, G12D); assay: KRAS(G12D)/SOS1 homogeneous time-resolved fluorescence (HTRF) assay; format: binding; conditions: absence of GTP; 4° C., 3 hr
T1 construct: purchased Cisbio 63ADK000CB17PEH
Outline: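 Disruption of the KRAS(G12D)/SOS1 pairing, in the absence of GTP, was read by time-resolved FRET after a 3 hr sealed incubation at 4 °C. Test compounds spanned 20 µM down to 1.02 nM in 3-fold steps. IC50 values correspond to half-maximal inhibition.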

T1 sequence (P01116 1-188 isoform P01116-2 G12D): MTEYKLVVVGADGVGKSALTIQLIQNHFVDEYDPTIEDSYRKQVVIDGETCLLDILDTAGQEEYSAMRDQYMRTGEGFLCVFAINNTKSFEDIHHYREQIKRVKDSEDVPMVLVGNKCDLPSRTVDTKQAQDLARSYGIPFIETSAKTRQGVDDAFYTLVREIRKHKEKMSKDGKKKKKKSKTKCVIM

Compound	EC50 [1] [µM]	EC50 [2] [µM]	EC50 [3] [µM]	IC50 (KRAS(G12D)/SOS1) [µM]
C#Cc1cccc2cccc(-c3ncc4c(N5CC6CCC(C5)N6)nc(OC[C@@H]5CC[C@H](CN6CCN(Cc7ccc(-n8c(O)nnc8-c8cc(C(C)C)c(O)cc8O)cc7)CC6)N5C)nc4c3F)c12 [Compound 15]	0.1 to 1	> 1	0.1 to 1	< 0.1
C#Cc1cccc2cccc(-c3ncc4c(N5CC6CCC(C5)N6)nc(OC[C@@H]5CC[C@H](CN6CCN(Cc7ccc(-n8c(C(=O)NCC)nnc8-c8cc(C(C)C)c(O)cc8O)cc7)CC6)N5C)nc4c3F)c12 [Compound 16]	< 0.1	0.1 to 1	< 0.1	< 0.1
C#Cc1cccc2cccc(-c3ncc4c(N5CC6CCC(C5)N6)nc(OCCN5CCN(Cc6ccc(-n7c(C(=O)NCC)nnc7-c7cc(C(C)C)c(O)cc7O)cc6)CC5)nc4c3F)c12 [Compound 17]	< 0.1	0.1 to 1	< 0.1	< 0.1
C#Cc1cccc2cccc(-c3ncc4c(N5CC6CCC(C5)N6)nc(OCC5(CN6CCN(C(=O)C7CCN(Cc8ccc(-n9c(O)nnc9-c9cc(C(C)C)c(O)cc9O)cc8)CC7)CC6)CC5)nc4c3F)c12 [Compound 18]	0.1 to 1	> 1	0.1 to 1	< 0.1
C#Cc1cccc2cccc(-c3ncc4c(N5CC6CCC(C5)N6)nc(OCC5(CN6CCN(C(=O)C7CCN(Cc8ccc(-n9c(C(=O)NCC)nnc9-c9cc(C(C)C)c(O)cc9O)cc8)CC7)CC6)CC5)nc4c3F)c12 [Compound 19]	< 0.1	0.1 to 1	0.1 to 1	< 0.1
C#Cc1cccc2cccc(-c3ncc4c(N5CC6CCC(C5)N6)nc(OCCN5CCN(C(=O)C6CCN(Cc7ccc(-n8c(O)nnc8-c8cc(C(C)C)c(O)cc8O)cc7)CC6)CC5)nc4c3F)c12 [Compound 20]	0.1 to 1	> 1	0.1 to 1	0.1 to 1
C#Cc1cccc2cccc(-c3ncc4c(N5CC6CCC(C5)N6)nc(OCCN5CCN(C(=O)C6CCN(Cc7ccc(-n8c(C(=O)NCC)nnc8-c8cc(C(C)C)c(O)cc8O)cc7)CC6)CC5)nc4c3F)c12 [Compound 21]	< 0.1	> 1	0.1 to 1	0.1 to 1
Cc1cccc2cccc(-c3ncc4c(N5CC6CCC(C5)N6)nc(OC[C@@H]5C[C@H](N6CCN(Cc7ccc(-n8c(O)nnc8-c8cc(C(C)C)c(O)cc8O)cc7)CC6)CN5C)nc4c3F)c12 [Compound 22]	0.1 to 1	> 1	0.1 to 1	0.1 to 1
Cc1cccc2cccc(-c3ncc4c(N5CC6CCC(C5)N6)nc(OC[C@@H]5C[C@H](N6CCC(C(=O)N7CCN(Cc8ccc(-n9c(O)nnc9-c9cc(C(C)C)c(O)cc9O)cc8)CC7)CC6)CN5C)nc4c3F)c12 [Compound 23]	0.1 to 1	> 1	0.1 to 1	0.1 to 1
CCNC(=O)c1nnc(-c2cc(C(C)C)c(O)cc2O)n1-c1ccc(CN2CCC(C(=O)N3CCN([C@H]4C[C@@H](COc5nc(N6CC7CCC(C6)N7)c6cnc(-c7cccc8cccc(C)c78)c(F)c6n5)N(C)C4)CC3)CC2)cc1 [Compound 24]	< 0.1	0.1 to 1	< 0.1	0.1 to 1
C#Cc1cccc2cccc(-c3ncc4c(N5CC6CCC(C5)N6)nc(OC[C@@H]5C[C@H](N6CCN(Cc7ccc(-n8c(O)nnc8-c8cc(C(C)C)c(O)cc8O)cc7)CC6)CN5C)nc4c3F)c12 [Compound 26]	0.1 to 1	> 1	0.1 to 1	< 0.1
C#Cc1cccc2cccc(-c3ncc4c(N5CC6CCC(C5)N6)nc(OCC5CC[C@H](CN6CCN(C(=O)C7CCN(Cc8ccc(-n9c(O)nnc9-c9cc(C(C)C)c(O)cc9O)cc8)CC7)CC6)N5C)nc4c3F)c12 (stereo partly shown) [Compound 27]	< 0.1	0.1 to 1	< 0.1	< 0.1
C#Cc1cccc2cccc(-c3ncc4c(N5CC6CCC(C5)N6)nc(OC[C@@H]5CC[C@H](CN6CCN(C(=O)C7CCN(Cc8ccc(-n9c(C(=O)NCC)nnc9-c9cc(C(C)C)c(O)cc9O)cc8)CC7)CC6)N5C)nc4c3F)c12 [Compound 28]	< 0.1	0.1 to 1	< 0.1	< 0.1

From patent publication US20260070929A1, “METHODS AND COMPOSITIONS FOR MODULATING KRAS(G12D)” (Ranok Therapeutics (Hangzhou) Co. LTD., priority 2022, published 2026)
